{"source": "ChEMBL document CHEMBL1926516", "about": "“Induction of cell cycle arrest by the carbazole alkaloid Clauszoline-I from Clausena vestita D. D. Tao via inhibition of the PKCδ phosphorylation” (Eur J Med Chem, 2012)", "key": {"[1]": {"tested_on": "HepG2", "assay": "cells", "assay_type": "functional, cell-based", "details": "Homo sapiens, HepG2, 48 h"}, "[2]": {"assay": "Cytotoxicity human L02 cells after 48 hrs by WST-8 based CCK8 assay", "assay_type": "cell-based", "details": "L02, 48 h"}, "[3]": {"target": "Protein kinase C delta type (Homo sapiens) (UniProt Q05655)", "sequence (Q05655 whole entry, looked up)": "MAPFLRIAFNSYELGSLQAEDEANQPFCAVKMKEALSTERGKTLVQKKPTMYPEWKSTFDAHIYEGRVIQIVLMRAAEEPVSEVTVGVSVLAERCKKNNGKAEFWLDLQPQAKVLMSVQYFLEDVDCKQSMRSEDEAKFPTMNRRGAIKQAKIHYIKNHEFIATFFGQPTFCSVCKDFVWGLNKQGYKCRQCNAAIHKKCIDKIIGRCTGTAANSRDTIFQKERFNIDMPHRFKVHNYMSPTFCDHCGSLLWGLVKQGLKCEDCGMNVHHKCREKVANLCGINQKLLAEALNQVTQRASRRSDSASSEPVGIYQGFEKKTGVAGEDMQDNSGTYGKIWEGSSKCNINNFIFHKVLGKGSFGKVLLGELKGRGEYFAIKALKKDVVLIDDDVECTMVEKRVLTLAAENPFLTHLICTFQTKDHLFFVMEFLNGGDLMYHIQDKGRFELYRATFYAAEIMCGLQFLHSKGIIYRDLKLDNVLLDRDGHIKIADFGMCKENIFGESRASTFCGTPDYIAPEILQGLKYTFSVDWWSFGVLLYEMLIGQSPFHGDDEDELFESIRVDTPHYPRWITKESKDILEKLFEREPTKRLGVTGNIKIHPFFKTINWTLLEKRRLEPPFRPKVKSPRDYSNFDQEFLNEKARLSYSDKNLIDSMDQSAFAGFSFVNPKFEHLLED", "details": "HepG2, 10 uM", "description": "Inhibition of PKCdelta phosphorylation at Ser643 in human HepG2 cells at 10 uM after 1 hr by Western blot analysis"}, "[4]": {"target": "Transforming protein RhoA (Homo sapiens) (UniProt P61586)", "sequence (P61586 whole entry)": "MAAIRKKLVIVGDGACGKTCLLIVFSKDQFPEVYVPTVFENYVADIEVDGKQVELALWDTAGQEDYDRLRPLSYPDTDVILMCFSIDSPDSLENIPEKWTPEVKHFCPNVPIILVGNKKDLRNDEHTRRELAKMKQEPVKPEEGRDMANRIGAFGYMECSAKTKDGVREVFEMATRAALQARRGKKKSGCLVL", "assay": "Inhibition of RhoA activation in human HepG2 cells assessed as decrease of membrane-associated protein level at 10 uM after 24 hrs by Western blot analysis", "assay_type": "cell-based"}, "[5]": {"tested_on": "HepG2", "assay": "Cytotoxicity against human HepG2 cells assessed as increase in cells with filamentous protrusions at 16 uM after 24 hrs using […] staining by confocal microscopy", "assay_type": "functional, cell-based"}, "[6]": {"tested_on": "HepG2", "assay": "Cell cycle arrest in human HepG2 cells assessed as accumulation at G0/G1 phase at 16 uM after 24 hrs using propidium iodide staining by flow cytometry (reference value: 71.5 %)", "assay_type": "functional"}, "[7]": {"tested_on": "HepG2", "assay": "Cell cycle arrest in human HepG2 cells assessed as effect on cytoplasmic Chk2 protein level at 16 uM after 24 hrs by Western blot analysis", "assay_type": "functional, cell-based"}, "[8]": {"assay": "Cell cycle arrest in human L02 cells assessed as effect on cytoplasmic Chk2 protein level at 16 uM after 24 hrs by Western blot analysis", "assay_type": "ADME, cell-based", "details": "l02, 24 h"}, "[9]": {"assay": "Cell cycle arrest in human L02 cells assessed as effect on Chk1 protein level in nucleus at 16 uM after 24 hrs by Western blot analysis", "assay_type": "ADME, cell-based", "details": "l02, 24 h"}, "[10]": {"target": "Protein kinase C delta type (Homo sapiens) (UniProt Q05655)", "assay": "Inhibition of PKCdelta phosphorylation at Ser643 in human HepG2 cells by Western blot analysis", "assay_type": "cell-based"}, "[11]": {"target": "Protein kinase C iota type/zeta type (Homo sapiens) (UniProt P41743+Q05513)", "sequence (P41743 whole entry, looked up)": "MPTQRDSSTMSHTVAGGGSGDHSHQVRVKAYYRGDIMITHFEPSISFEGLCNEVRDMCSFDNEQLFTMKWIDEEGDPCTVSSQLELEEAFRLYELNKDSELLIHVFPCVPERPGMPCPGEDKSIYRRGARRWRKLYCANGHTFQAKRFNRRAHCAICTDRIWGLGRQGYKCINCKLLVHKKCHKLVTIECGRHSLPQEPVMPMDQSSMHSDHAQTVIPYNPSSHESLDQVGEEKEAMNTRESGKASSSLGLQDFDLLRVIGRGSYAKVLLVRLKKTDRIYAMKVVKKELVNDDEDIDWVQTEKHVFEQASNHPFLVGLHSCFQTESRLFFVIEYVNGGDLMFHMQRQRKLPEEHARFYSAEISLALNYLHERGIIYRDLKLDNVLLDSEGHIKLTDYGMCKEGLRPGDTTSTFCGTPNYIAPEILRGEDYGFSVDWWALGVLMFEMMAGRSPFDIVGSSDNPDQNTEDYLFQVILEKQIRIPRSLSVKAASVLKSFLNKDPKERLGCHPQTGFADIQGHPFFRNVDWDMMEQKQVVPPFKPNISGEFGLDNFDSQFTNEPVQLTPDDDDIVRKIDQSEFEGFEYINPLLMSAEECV", "sequence (Q05513 whole entry, looked up)": "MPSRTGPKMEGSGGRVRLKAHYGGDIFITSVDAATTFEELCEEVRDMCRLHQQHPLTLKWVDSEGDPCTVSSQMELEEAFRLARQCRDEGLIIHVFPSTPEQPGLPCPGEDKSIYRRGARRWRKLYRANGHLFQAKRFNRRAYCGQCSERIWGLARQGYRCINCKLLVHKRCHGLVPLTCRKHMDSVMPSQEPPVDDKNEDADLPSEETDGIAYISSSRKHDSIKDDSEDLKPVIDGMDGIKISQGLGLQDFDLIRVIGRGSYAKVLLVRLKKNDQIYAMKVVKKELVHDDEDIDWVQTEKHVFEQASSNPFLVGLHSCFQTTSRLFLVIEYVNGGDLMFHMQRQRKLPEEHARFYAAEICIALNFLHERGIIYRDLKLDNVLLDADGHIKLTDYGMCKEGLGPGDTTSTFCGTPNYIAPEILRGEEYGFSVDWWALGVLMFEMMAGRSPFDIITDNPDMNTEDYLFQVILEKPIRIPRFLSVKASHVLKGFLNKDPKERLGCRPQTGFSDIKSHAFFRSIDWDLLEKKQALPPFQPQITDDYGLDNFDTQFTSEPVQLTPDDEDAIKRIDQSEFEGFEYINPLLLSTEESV", "assay": "Inhibition of PKCzeta/lambda phosphorylation at Thr410/403 in human HepG2 cells by Western blot analysis", "assay_type": "cell-based"}, "[12]": {"tested_on": "HepG2", "assay": "Cell cycle arrest in human HepG2 cells assessed as increase in cytoplasmic Chk1 protein level at 16 uM after 24 hrs by Western blot analysis", "assay_type": "functional, cell-based"}, "[13]": {"tested_on": "HepG2", "assay": "Cell cycle arrest in human HepG2 cells assessed as accumulation at S phase at 16 uM after 24 hrs using propidium iodide staining by flow cytometry (reference value: 21.6 %)", "assay_type": "functional"}, "[14]": {"tested_on": "HepG2", "assay": "Cell cycle arrest in human HepG2 cells assessed as decrease in Chk1 protein level in nucleus at 16 uM after 24 hrs by Western blot analysis", "assay_type": "functional, cell-based"}, "[15]": {"tested_on": "HepG2", "assay": "Cell cycle arrest in human HepG2 cells assessed as accumulation at G2/M phase at 16 uM after 24 hrs using propidium iodide staining by flow cytometry (reference value: 6.9 %)", "assay_type": "functional"}, "[16]": {"tested_on": "HepG2", "assay": "Cell cycle arrest in human HepG2 cells assessed as effect on Chk2 protein level in nucleus at 16 uM after 24 hrs by Western blot analysis", "assay_type": "functional, cell-based"}, "[17]": {"tested_on": "MDA-MB-231", "assay": "Growth inhibition human MDA-MB-231 cells after 48 hrs by WST-8 based CCK8 assay", "assay_type": "functional, cell-based", "details": "MDA-MB-231, 48 h"}, "[18]": {"tested_on": "T98G", "assay": "Growth inhibition human T98G cells after 48 hrs by WST-8 based CCK8 assay", "assay_type": "cell-based"}, "[19]": {"tested_on": "HepG2", "assay": "Growth inhibition of human HepG2 cells at 16 uM after 24 to 72 hrs by WST-8 based CCK8 assay", "assay_type": "functional, cell-based"}, "[20]": {"tested_on": "HeLa", "assay": "Growth inhibition human HeLa cells after 48 hrs by WST-8 based CCK8 assay", "assay_type": "functional, cell-based"}, "[21]": {"target": "PKC alpha and beta-2 (Homo sapiens) (UniProt P17252+P05771)", "sequence (P05771 whole entry, looked up)": "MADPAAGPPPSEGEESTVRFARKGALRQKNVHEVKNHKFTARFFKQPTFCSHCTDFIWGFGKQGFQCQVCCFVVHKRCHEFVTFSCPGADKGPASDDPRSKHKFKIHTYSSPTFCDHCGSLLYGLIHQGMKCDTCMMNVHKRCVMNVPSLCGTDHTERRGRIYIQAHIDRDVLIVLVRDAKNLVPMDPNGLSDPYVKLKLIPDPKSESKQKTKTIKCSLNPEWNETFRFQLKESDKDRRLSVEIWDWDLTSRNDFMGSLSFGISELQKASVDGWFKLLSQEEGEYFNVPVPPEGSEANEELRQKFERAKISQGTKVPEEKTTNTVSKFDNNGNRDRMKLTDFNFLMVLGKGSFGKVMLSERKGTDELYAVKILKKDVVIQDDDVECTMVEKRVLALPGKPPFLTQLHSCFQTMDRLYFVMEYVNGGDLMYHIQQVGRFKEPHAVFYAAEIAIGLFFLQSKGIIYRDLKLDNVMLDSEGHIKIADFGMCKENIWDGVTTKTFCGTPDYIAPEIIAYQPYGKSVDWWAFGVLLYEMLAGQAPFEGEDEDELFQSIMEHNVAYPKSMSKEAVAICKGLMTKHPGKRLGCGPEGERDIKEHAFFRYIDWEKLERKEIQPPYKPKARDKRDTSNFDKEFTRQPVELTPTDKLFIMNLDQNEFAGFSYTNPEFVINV", "assay": "Inhibition of PKCalpha/beta2 phosphorylation at Thr 638/641 in human HepG2 cells by Western blot analysis", "assay_type": "cell-based"}, "[22]": {"tested_on": "HepG2", "assay": "Induction of apoptosis in human HepG2 cells at 16 uM after 24 hrs using propidium iodide staining by flow cytometry", "assay_type": "functional, cell-based"}, "[23]": {"target": "Transforming protein RhoA (Homo sapiens) (UniProt P61586)", "assay": "Inhibition of RhoA activation in human L02 cells assessed as decrease of membrane-associated protein level at 16 uM after 24 hrs by Western blot analysis", "assay_type": "cell-based"}, "[24]": {"assay": "Growth inhibition human CNE2 cells after 48 hrs by WST-8 based CCK8 assay", "assay_type": "functional, cell-based", "details": "CNE-2, 48 h"}, "[25]": {"target": "Protein kinase C delta type (Homo sapiens) (UniProt Q05655)", "assay": "Inhibition of PKCdelta phosphorylation at Ser643 in human L02 cells by Western blot analysis", "assay_type": "cell-based"}, "[26]": {"tested_on": "HepG2", "assay": "Cytotoxicity against human HepG2 cells assessed as decrease in F-actin staining at 16 uM after 24 hrs using […] staining by confocal microscopy", "assay_type": "functional, cell-based"}, "[27]": {"target": "Transforming protein RhoA (Homo sapiens) (UniProt P61586)", "assay": "Inhibition of RhoA activation in human HepG2 cells assessed as decrease of membrane-associated protein level at 16 uM after 24 hrs by Western blot analysis", "assay_type": "cell-based"}, "[28]": {"tested_on": "HepG2", "assay": "Growth inhibition of human HepG2 cells at 4 uM after 24 to 72 hrs by WST-8 based CCK8 assay", "assay_type": "functional, cell-based"}, "[29]": {"assay": "Cell cycle arrest in human L02 cells assessed as effect on cytoplasmic Chk1 protein level at 16 uM after 24 hrs by Western blot analysis", "assay_type": "ADME, cell-based", "details": "l02, 24 h"}, "[30]": {"assay": "Cell cycle arrest in human L02 cells assessed as effect on Chk2 protein level in nucleus at 16 uM after 24 hrs by Western blot analysis", "assay_type": "ADME, cell-based", "details": "l02, 24 h"}, "[31]": {"target": "Protein kinase C delta type (Homo sapiens) (UniProt Q05655)", "assay": "Inhibition of PKCdelta phosphorylation at Thr505 in human L02 cells by Western blot analysis", "assay_type": "cell-based"}}, "note": "Active and inactive are the calls of the source. No cut-off for these calls is given here.", "data": [{"molecule": "O=Cc1cc(O)c2[nH]c3ccc(O)cc3c2c1", "values": [{"measurement": "IC50", "setting": "[1]", "value": 135, "unit": "µM"}]}, {"molecule": "Cc1cc2c(cc1O)[nH]c1ccccc12", "values": [{"measurement": "IC50", "setting": "[2]", "value": 85.2, "unit": "µM"}, {"measurement": "IC50", "setting": "[1]", "value": 14.4, "unit": "µM"}]}, {"molecule": "COc1cc(=O)n(C)c2ccccc12", "values": [{"measurement": "IC50", "setting": "[1]", "value": "> 160", "unit": "µM"}]}, {"molecule": "COC(=O)c1ccc2[nH]c3ccccc3c2c1", "values": [{"measurement": "IC50", "setting": "[1]", "value": 36.9, "unit": "µM"}]}, {"molecule": "COc1ccc2c(c1)[nH]c1cc(O)c(C=O)cc12", "values": [{"measurement": "IC50", "setting": "[1]", "value": 28.6, "unit": "µM"}]}, {"molecule": "CC(=O)c1c(O)c(C)c(O)c(Cc2c(O)c3c(c(C(=O)/C=C/c4ccccc4)c2O)OC(C)(C)C=C3)c1O", "values": [{"measurement": "inhibition", "setting": "[3]", "value": "Active"}, {"measurement": "inhibition", "setting": "[4]", "value": "Active"}]}, {"molecule": "COC(=O)c1cc(O)c2[nH]c3ccccc3c2c1", "note": "[CLAUSINE E]", "values": [{"measurement": "Activity", "setting": "[5]", "value": "Active"}, {"measurement": "Activity", "setting": "[6]", "value": 55.9, "unit": "%"}, {"measurement": "Activity", "setting": "[7]", "value": "inactive"}, {"measurement": "Activity", "setting": "[8]", "value": "Non-toxic"}, {"measurement": "Activity", "setting": "[9]", "value": "Non-toxic"}, {"measurement": "inhibition", "setting": "[10]", "value": "Dose-dependent effect"}, {"measurement": "inhibition", "setting": "[11]", "value": "inactive"}, {"measurement": "Activity", "setting": "[12]", "value": "Active"}, {"measurement": "Activity", "setting": "[13]", "value": 31.1, "unit": "%"}, {"measurement": "Activity", "setting": "[14]", "value": "Active"}, {"measurement": "Activity", "setting": "[15]", "value": 13.1, "unit": "%"}, {"measurement": "Activity", "setting": "[16]", "value": "inactive"}, {"measurement": "IC50", "setting": "[17]", "value": 37.1, "unit": "µM"}, {"measurement": "IC50", "setting": "[18]", "value": 71.6, "unit": "µM"}, {"measurement": "growth inhibition (GI)", "setting": "[19]", "value": "Active"}, {"measurement": "IC50", "setting": "[20]", "value": 13.3, "unit": "µM"}, {"measurement": "inhibition", "setting": "[21]", "value": "inactive"}, {"measurement": "IC50", "setting": "[2]", "value": "> 160", "unit": "µM"}, {"measurement": "Activity", "setting": "[22]", "value": "inactive"}, {"measurement": "inhibition", "setting": "[23]", "value": "inactive"}, {"measurement": "IC50", "setting": "[24]", "value": 16.9, "unit": "µM"}, {"measurement": "IC50", "setting": "[1]", "value": 15.8, "unit": "µM"}, {"measurement": "inhibition", "setting": "[25]", "value": "inactive"}, {"measurement": "Activity", "setting": "[26]", "value": "Active"}, {"measurement": "inhibition", "setting": "[27]", "value": "Active"}, {"measurement": "growth inhibition (GI)", "setting": "[28]", "value": "Active"}, {"measurement": "Activity", "setting": "[29]", "value": "Non-toxic"}, {"measurement": "Activity", "setting": "[30]", "value": "Non-toxic"}, {"measurement": "inhibition", "setting": "[31]", "value": "inactive"}]}, {"molecule": "COc1ccc2c(c1)[nH]c1cc(OC)c(C(=O)O)cc12", "note": "[CLAUSINE K]", "values": [{"measurement": "IC50", "setting": "[1]", "value": 24.4, "unit": "µM"}]}, {"molecule": "O=Cc1cc2c(cc1O)[nH]c1cc(O)ccc12", "note": "[CLAUSINE O]", "values": [{"measurement": "IC50", "setting": "[1]", "value": 32.8, "unit": "µM"}]}, {"molecule": "COC(=O)c1cc2c(cc1OC)[nH]c1cc(OC)ccc12", "note": "[CLAUSZOLINE C]", "values": [{"measurement": "IC50", "setting": "[1]", "value": "> 160", "unit": "µM"}]}, {"molecule": "COc1ccc2c(c1)[nH]c1ccc(C=O)cc12", "note": "[CLAUSZOLINE K]", "values": [{"measurement": "growth inhibition (GI)", "setting": "[19]", "value": "Active"}, {"measurement": "IC50", "setting": "[2]", "value": 72.5, "unit": "µM"}, {"measurement": "IC50", "setting": "[1]", "value": 4.23, "unit": "µM"}, {"measurement": "growth inhibition (GI)", "setting": "[28]", "value": "Active"}]}, {"molecule": "COc1c2ccccc2nc2occc12", "note": "[DICTAMNINE]", "values": [{"measurement": "IC50", "setting": "[1]", "value": 55.2, "unit": "µM"}]}, {"molecule": "COc1c2ccoc2nc2c(OC)cccc12", "note": "[GAMMA-FAGARINE]", "values": [{"measurement": "IC50", "setting": "[1]", "value": "> 160", "unit": "µM"}]}, {"molecule": "Cc1cc2c([nH]c3ccccc32)c2c1OC(C)(C)C=C2", "note": "[GRINIMIBINE]", "values": [{"measurement": "IC50", "setting": "[1]", "value": "> 160", "unit": "µM"}]}, {"molecule": "COc1ccc2c(c1)[nH]c1cc(OC)c(C=O)cc12", "note": "[LANSINE]", "values": [{"measurement": "IC50", "setting": "[1]", "value": 102, "unit": "µM"}]}, {"molecule": "O=Cc1cc2c(cc1O)[nH]c1ccccc12", "note": "[MUKONAL]", "values": [{"measurement": "IC50", "setting": "[1]", "value": 65.9, "unit": "µM"}]}, {"molecule": "COC(=O)c1cc2c(cc1O)[nH]c1ccccc12", "note": "[MUKONIDINE]", "values": [{"measurement": "IC50", "setting": "[1]", "value": "> 160", "unit": "µM"}]}]}
